Format in all cases: functional, cell-based
The subject of assay [1] is SK-OV-3. Put plainly: Downregulation of EMT signalling in human SK-OV-3 cells transfected with shFHL1-1 RNA assessed as N-cadherin protein expression at 10 uM by western blot analysis. A general note: In western blotting, separated proteins are transferred to a membrane and probed.
In assay [2] the test system is SK-OV-3. In words: Potentiation of olaparib sensitivity in human SK-OV-3 cells transfected with shFHL1-1 RNA assessed as inhibition of cell invasion at 10 uM measured after 48 hrs in presence of olaparib by Transwell assay.
Assay [3] has as its system SK-OV-3. In words: Potentiation of olaparib sensitivity in human SK-OV-3 cells transfected with shFHL1-2 RNA assessed as inhibition of cell migration at 10 uM measured after 24 to 48 hrs in presence of olaparib by wound healing assay. Conditions: time 24-48 hrs.
A further assay has as its system A2780. In words: Inhibition of cell invasion in human A2780 cells at 10 uM measured after 48 hrs by Transwell assay.

Each structure is given as a SMILES string. Activity calls are given as the source filed them. No cut-off for these calls is given here.

`CC[C@]12C=CCN3CC[C@]4(C(=C(C(=O)OC)C1)Nc1ccccc14)[C@@H]32` [TABERSONINE]: in the assay with SK-OV-3 [1], the inhibition entry is “inactive”. Further, the outcome in the assay on SK-OV-3 [2] and with SK-OV-3 [3] was inactive. The inhibition entry with A2780 is “Active”.

For the origin of these results see ChEMBL document CHEMBL5385929, “Tabersonine Enhances Olaparib Sensitivity through FHL1-Mediated Epithelial-Mesenchymal Transition in an Ovarian Tumor” (J Nat Prod, 2024).
